Key:
Assay in all cases: relative viability (nuclei count vs DMSO), 5 days (fraction); higher = more cells survive
Bemcentinib + Phenformin = compound: Nc1nc(Nc2ccc3c(c2)CC[C@@H](N2CCCC2)CC3)nn1-c1cc2c(nn1)-c1ccccc1CCC2 [Bemcentinib] + N=C(N)NC(=N)NCCc1ccccc1 [Phenformin] (partner 250 µM)
Procedure, shortened: (§1)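 Lung cancer cell lines in 1536-well plates got either a single drug or a fixed anchor-drug dose together with five library-drug doses (not always all listed) in √10 steps, by pin tool, on the day after seeding. Nuclei were counted after 5 days, and relative viability is the treated-to-vehicle ratio of nuclei counts. Values are medians of duplicate plates.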

Axitinib + Lapatinib = compound: CNC(=O)c1ccccc1Sc1ccc2c(/C=C/c3ccccn3)n[nH]c2c1 [Axitinib] + CS(=O)(=O)CCNCc1ccc(-c2ccc3ncnc(Nc4ccc(OCc5cccc(F)c5)c(Cl)c4)c3c2)o1 [Lapatinib] (partner 2 µM)
Procedure, shortened: as §1

[1] = compound: CC1=CC=C(C=C1)C(=O)CN2C3=C(CCCC3)SC2=N [Pifithrin_alpha] + N=C(N)NC(=N)NCCc1ccccc1 [Phenformin] (partner 250 µM)
Procedure, shortened: as §1

Bemcentinib + Olaparib = compound: Nc1nc(Nc2ccc3c(c2)CC[C@@H](N2CCCC2)CC3)nn1-c1cc2c(nn1)-c1ccccc1CCC2 [Bemcentinib] + O=C(c1cc(Cc2n[nH]c(=O)c3ccccc23)ccc1F)N1CCN(C(=O)C2CC2)CC1 [Olaparib] (partner 8 µM)
Procedure, shortened: as §1

| Cell Line | relative viability (Bemcentinib + Phenformin; first compound 0.04 µM) | relative viability (Bemcentinib + Phenformin; first compound 0.1265 µM) | relative viability (Bemcentinib + Phenformin; first compound 0.4 µM) | relative viability (Bemcentinib + Phenformin; first compound 1.265 µM) | relative viability (Bemcentinib + Phenformin; first compound 4 µM) | relative viability (Axitinib + Lapatinib; first compound 0.005 µM) | relative viability (Axitinib + Lapatinib; first compound 0.01581 µM) | relative viability (Axitinib + Lapatinib; first compound 0.05 µM) | relative viability (Axitinib + Lapatinib; first compound 0.1581 µM) | relative viability (Axitinib + Lapatinib; first compound 0.5 µM) | relative viability ([1]; first compound 1 µM) | relative viability ([1]; first compound 3.162 µM) | relative viability ([1]; first compound 10 µM) | relative viability ([1]; first compound 31.62 µM) | relative viability ([1]; first compound 100 µM) | relative viability (Bemcentinib + Olaparib; first compound 0.04 µM) | relative viability (Bemcentinib + Olaparib; first compound 0.1265 µM) | relative viability (Bemcentinib + Olaparib; first compound 0.4 µM) | relative viability (Bemcentinib + Olaparib; first compound 1.265 µM) | relative viability (Bemcentinib + Olaparib; first compound 4 µM) |
| --- | --- | --- | --- | --- | --- | --- | --- | --- | --- | --- | --- | --- | --- | --- | --- | --- | --- | --- | --- | --- |
| 201T | 0.417 | 0.504 | 0.48 | 0.454 | 0.455 | 1.01 | 1.03 | 1.07 | 1.05 | 0.966 | 0.401 | 0.385 | 0.383 | 0.441 | 0.457 | 0.872 | 0.874 | 0.934 | 0.897 | 0.818 |
| A549 | 0.126 | 0.124 | 0.17 | 0.121 | 0.147 | 0.896 | 1 | 0.997 | 0.902 | 1.01 | – | 0.272 | 0.374 | 0.315 | 0.305 | 0.264 | 0.279 | 0.323 | 0.167 | 0.342 |
| A-427 | 0.305 | 0.308 | 0.332 | 0.337 | 0.258 | 1.1 | 1.01 | 1.08 | 1.06 | 1.06 | 0.318 | 0.305 | 0.245 | 0.235 | 0.264 | 0.737 | 0.783 | 0.853 | 0.72 | 0.71 |
| ABC-1 | 0.191 | 0.267 | 0.23 | 0.253 | 0.239 | 1.19 | 1.28 | 1.01 | 1.32 | 1.21 | 0.251 | 0.218 | 0.227 | 0.255 | 0.227 | 0.627 | 0.843 | 0.855 | 0.774 | 0.792 |
| BEN | 0.242 | 0.289 | 0.269 | 0.255 | 0.295 | 0.695 | 0.648 | 0.592 | 0.563 | 0.497 | 0.296 | 0.595 | 0.276 | 0.246 | 0.289 | 1.05 | 1.25 | 1.02 | 1.19 | 1.18 |
| CAL-12T | 0.492 | 0.632 | 0.611 | 0.579 | 0.601 | 0.712 | 0.693 | 0.609 | 0.645 | 0.624 | 0.604 | 0.558 | 0.533 | – | 0.457 | 0.705 | 0.751 | 0.716 | 0.77 | 0.698 |
| Calu-6 | – | – | – | – | – | 1.07 | 1.11 | 1.08 | 1.06 | 1.39 | – | – | – | – | – | 0.525 | 0.573 | 0.614 | 0.535 | 0.57 |
| ChaGo-K-1 | 0.486 | 0.544 | 0.517 | 0.473 | 0.442 | – | – | – | – | – | 0.485 | 0.5 | 0.491 | 0.387 | 0.472 | 0.403 | 0.371 | 0.467 | 0.438 | 0.423 |

Source: the supplement of paper PMC10307832
